The source of these data is US6638919B2, “Antiviral purine derivatives” (University College Cardiff Consultants Limited, priority 2001, dated 2003).

Holding throughout (type): cell-based
Data set [1] deals with HIV-2. Nature of the data set: Inhibition of HIV-2 giant cell formation in CEM cells. The note with it: Table III; EC50 for inhibition of HIV-2 in CEM cells; read-out: HIV2 CBM. How it is done: (§1) Then 100 μL of the infected cell suspension was transferred to microtiter plate wells and mixed with 100 μL of the appropriate dilutions of the test compounds.
HIV1 CEM: EC50 in μM for inhibition of […] in CEM cells.
HIV2 CEM: EC50 in μM for inhibition of HIV-2 in CEM cells

Data set [2] concerns CEM cells. Nature of the data set: Toxicity to mock-infected CEM cells (CC50). The note with it: Table III; toxicity to CEM cells; read-out: CC50 CEN. On the procedure: as §1
CC50 CEM: CC50 in μM for toxicity to CEM cells.
CC50 CEM: CC50 μM for toxicity to CEM cells

Data set [3] deals with HIV-1. Kind of data set: Inhibition of HIV-1 giant cell formation in CEM cells. The settings on record: Table III; EC50 for inhibition of HIV1 in CEM cells; read-out: HIV1 CBM. How it is done:
as §1
HIV 1 CEM: EC50 in μM for inhibition of HIV1 in CEM cells

Data set [4] has as its system MSV. Nature of the data set: Minimum cytotoxic concentration in MSV assay. On the set-up: unit not given here. The settings on record: Table III. The text has this: MCC MSV: minimum cytotoxic concentration in MSV essay.
The test system of data set [5] is MSV. Kind of data set: Inhibition of MSV. The settings on record: Table III; inhibition of MSV; read-out: EC50 MSV. How it is done: EC50 MSV: EC50 μM for inhibition of MSV

What is called CC50 is the concentration that lowers cell viability or growth by half.

Structures can show the parent of a compound that is named as a salt.

With `C[C@H](NP(=O)(OC[C@@H]1C=C[C@H](n2cnc3c(NC4CC4)nc(N)nc32)C1)Oc1ccccc1)C(=O)OC1CCCCCC1` (stereo partly drawn) [Compound 1752, (1S,4R)-4-(2-amino-6-cyclopropylamino-9-H-purin-9-yl)2-cyclopentene-1-methanol O-(phenyl (cycloheptanyl)oxyalaninyl phosphate)], the EC50 in data set [1] is 1050 nM; in data set [3] it was 1300 nM. For the same compound, the CC50 in data set [2] was 6320 nM.
Consider `C[C@H](NP(=O)(OC[C@@H]1C=C[C@H](n2cnc3c(NC4CC4)nc(N)nc32)C1)Oc1ccccc1)C(=O)OCC1CCCCC1` (stereo partly drawn) [Compound 1708, (1S,4R)-4-(2-amino-6-cyclopropylamino-9H-purin-9-yl)-2cyclopentene-1-methanol O-Phenyl-(cyclobexane-methoxy-L-alaninyl)-phosphate], for which the EC50 in data set [1] worked out at 160 nM; in data set [3], 150 nM; in data set [5], 1300 nM. For the same compound, in data set [2], the CC50 stood at 15100 nM. In data set [4], this compound displayed an MCCMSV greater than 4.
In the case of `C[C@H](NP(=O)(OC[C@@H]1C=C[C@H](n2cnc3c(NC4CC4)nc(N)nc32)C1)Oc1ccccc1)C(=O)OCc1ccccc1` (stereo partly drawn) [Compound 1582, (1S,4R)-4-(2-amino-6-cyclopropylamino-9H-purin-9-yl)-2-cyclopentene-1-methanol O-[phenyl-(enzoxy-L-alaninyl)]-phosphate], the EC50 turned out to be 110 nM in data set [1] and 83 nM in data set [3]. In data set [2], the CC50 turned out to be 12500 nM.
As for `C[C@H](NP(=O)(O)OC[C@@H]1C=C[C@H](n2cnc3c(NC4CC4)nc(N)nc32)C1)C(=O)O` [Compound 1540, (1S,4R)-4-(2-amino-6-cyclopropylamino-9H-purin-9-yl)-2-cyclopentene-1-methanol O-(L-alaninyl)-phosphate diammonium salt], the EC50 in data set [1] was 950 nM; in data set [3], 1200 nM. In addition, the CC50 in data set [2] came to 115000 nM.
For the compound `CC(C)COC(=O)[C@H](C)NP(=O)(OC[C@@H]1C=C[C@H](n2cnc3c(NC4CC4)nc(N)nc32)C1)Oc1ccccc1` (stereo partly drawn) [Compound 1672, (1S,4R)-4-(2-:amino-6-cyclopropylamino-9H-purin-9-yl-2-cyclopentene-1-methanol O-(phenyl (2-methylpropyl)oxyalaninyl phosphate)], the EC50 in data set [1] was determined as 100 nM; in data set [3], 90 nM; in data set [5] it was 1980 nM. Moreover, in data set [2], the CC50 was 14400 nM. The same compound registered an MCCMSV in data set [4] greater than 4.
Turning to `CCCOC(=O)[C@H](C)NP(=O)(OC[C@@H]1C=C[C@H](n2cnc3c(NC4CC4)nc(N)nc32)C1)Oc1ccccc1` (stereo partly drawn) [Compound 1646, (1S,4R)-4-(2-amino-6-cyclopropylamino-9H-purin-9-Sl)-2-cyclopentene-1-methanol O-Phenyl-(n-propoxy-L-alaninyl)-phosphate], the values for the EC50 in data set [1], in data set [3] and in data set [5] were 120 nM, 93 nM and 2000 nM, respectively. Also, the CC50 in data set [2] was 9000 nM. Moreover, the MCCMSV in data set [4] is on record as greater than 4.
For the compound `COC(=O)C[C@H](NP(=O)(OC[C@@H]1C=C[C@H](n2cnc3c(NC4CC4)nc(N)nc32)C1)Oc1ccccc1)C(=O)OC` (stereo partly drawn) [Compound 1589, (1S,4R)-4-(2-amino-6-cyclopropylamin9H-purin-9-yl)-2-cyclopentene-1-methanol O-[phenyl-(L-asparic acid dimethyl ester)]-phosphate], the figures for the EC50 in data set [1] and in data set [3] were 1900 nM and 1420 nM, respectively. Besides, the CC50 in data set [2] worked out at 44200 nM.
Turning to `COC(=O)[C@H](Cc1ccccc1)NP(=O)(OC[C@@H]1C=C[C@H](n2cnc3c(NC4CC4)nc(N)nc32)C1)Oc1ccccc1` (stereo partly drawn) [Compound 1585, (1,S,4R)-4-(2-amino-6-cyclopropylamino-9H-purin-9-yl)-2-cyclopentee-1-methain O-[phenyl-(methoxy-L-phenylalaninyl)]-phosphate], the EC50 is 2130 nM in data set [1] and 1420 nM in data set [3]. In addition, the CC50 in data set [2] is 36100 nM.
With `COC(=O)CNP(=O)(OC[C@@H]1C=C[C@H](n2cnc3c(NC4CC4)nc(N)nc32)C1)Oc1ccccc1` (stereo partly drawn) [Compound 1588, (1 S,4R)-4-(2-amino-6-cyclopropylamino-9H-purin-9-yl)-2-cyclopentene-1-methanol O-[phenyl-(methoxy-glycinyl)]-phosphate], the EC50 in data set [1] stood at 2000 nM; in data set [3] it was 1780 nM. Moreover, the CC50 in data set [2] was no less than 100000 nM.
With `CCCCCOC(=O)[C@H](C)NP(=O)(OC[C@@H]1C=C[C@H](n2cnc3c(NC4CC4)nc(N)nc32)C1)Oc1ccccc1` (stereo partly drawn) [Compound 1706, (1S,4R)-4-(2-amino-6-cyclopropylamino-9H-purin-9-yl)-2-cyclopentene-1-methanol 0-Phenyl-(n-pentyloxy-L-alaninyl)-phosphate], the figures for the EC50 in data set [1], in data set [3] and in data set [5] were 80 nM, 65 nM and 1450 nM, respectively. Also, in data set [2], the CC50 was 16400 nM. In addition, in data set [4], the MCCMSV is greater than 4.
As to `COC(=O)[C@@H](C)NP(=O)(OC[C@@H]1C=C[C@H](n2cnc3c(NC4CC4)nc(N)nc32)C1)Oc1ccccc1` (stereo partly drawn) [Compound 1583, (1 S,4R)-4-(2-amino-6-cyclopropyiamino-9H-purin-9-yl)-2-cyclopentene-1-methanol O-[phenyl-(methoxy-D-alaninyl)]-phosphate], the EC50 was found to be 4500 nM in data set [1] and 1380 nM in data set [3]. The CC50 in data set [2] came to 64300 nM.
Turning to `CC[C@H](C)[C@H](NP(=O)(OC[C@@H]1C=C[C@H](n2cnc3c(NC4CC4)nc(N)nc32)C1)Oc1ccccc1)C(=O)OC` (stereo partly drawn) [Compound 1751, (1S,4R)-4-(2-amino-6-cyclpropylamino-9H purin-9-yl)-2-cyclopentene-1-methanol O-(phenylmethoxy-L-isoleucinyl phosphate)], the EC50 in data set [1] stood at 5330 nM; in data set [3] it was 7000 nM. For the same compound, the CC50 in data set [2] came out at 24200 nM.
On the same counts, the results for `COC(=O)CC[C@H](NP(=O)(OC[C@@H]1C=C[C@H](n2cnc3c(NC4CC4)nc(N)nc32)C1)Oc1ccccc1)C(=O)OC` (stereo partly drawn) [Compound 1749, (1S,4R)-4-(2-amino6-cyclopropylamino-9H-purin-9-yl)-2-cyclopentene-1-methanol O-(phenyldimethoxy-L-glutamyl phosphate)] are 5330 nM, 3500 nM and 36900 nM.
With `CCCCOC(=O)[C@H](C)NP(=O)(OC[C@@H]1C=C[C@H](n2cnc3c(NC4CC4)nc(N)nc32)C1)Oc1ccccc1` (stereo partly drawn) [Compound 1647, (1S,4R)-4-(2-amino-6-cyclopropylamino-9H-purin-9-yl)-2-cyclopentene-1-methanol O-Phenyl-(n-butoxy-L-alaninyl)-phosphate], the figures for the EC50 in data set [1], in data set [3] and in data set [5] were 170 nM, 85 nM and 620 nM, respectively. For the same compound, the CC50 in data set [2] worked out at 8230 nM. In data set [4], the MCCMSV is greater than 4.
Regarding `COC(=O)[C@H](C)NP(=O)(OC[C@@H]1C=C[C@H](n2cnc3c(NC4CC4)nc(N)nc32)C1)Oc1ccc(Br)cc1` (stereo partly drawn) [Compound 1710, (1S,4R)-4-(2-amino-6-cyclopropylamino-9H-purin-9-yl)-2-cyclopentene-1-methanol O-[4-bromophenyl-(methoxy-L-alaninyl)]-phosphate], the EC50 in data set [1] was determined as 49 nM; in data set [3], 5.5 nM; in data set [5] it was 510 nM. In data set [2], the CC50 turned out to be 5780 nM. Also, the MCCMSV in data set [4] is reported as greater than 0.8.
`COC(=O)C(C)(C)NP(=O)(OC[C@@H]1C=C[C@H](n2cnc3c(NC4CC4)nc(N)nc32)C1)Oc1ccccc1` (stereo partly drawn) [Compound 1584, (1S,4R)-4-(2-amino-6-cyclopropylamino-9H-purin-9-yl)-2-cyclopentene-1-methanol O-[phenyl-(methoxy-α,adimethylglycinyl)]-phosphate]: the EC50 in data set [1] stood at 60 nM; in data set [3] it was 67 nM. In addition, the CC50 in data set [2] was determined as 8910 nM.
For the compound `COC(=O)[C@H](Cc1c[nH]c2ccccc12)NP(=O)(OC[C@@H]1C=C[C@H](n2cnc3c(NC4CC4)nc(N)nc32)C1)Oc1ccccc1` (stereo partly drawn) [Compound 1750, (1S,4R)-4-(2-amino-6-cyclopropylamino-9H-purin-9-yl)-2cyclopentene-1-methanol O-(phenylmethoxy-L-tryptophanyl phosphate)], the EC50 in data set [1] turned out to be 3670 nM; in data set [3], 3000 nM. Also, in data set [2], the CC50 amounted to 18300 nM.
On to `CC(C)CCOC(=O)C(C)NP(=O)(OC[C@@H]1C=C[C@H](n2cnc3c(NC4CC4)nc(N)nc32)C1)Oc1ccccc1` (stereo partly drawn) [Compound 1674, (1S,4R)-4-(2-amino-6-cyclopropylamino-9H-purin-9-yl)-2-cyclopentene-1-methanol O-(phenyl (3-methylbutyl)oxyalaninyl phosphate)], for which the values for the EC50 in data set [1] and in data set [5] were 250 nM and 2040 nM, respectively. For the same compound, the CC50 in data set [2] was found to be 10700 nM. In data set [4], this compound gave an MCCMSV greater than 4.
On to `CCOC(=O)C[C@H](NP(=O)(OC[C@@H]1C=C[C@H](n2cnc3c(NC4CC4)nc(N)nc32)C1)Oc1ccccc1)C(=O)OCC` (stereo partly drawn) [Compound 1714, (1S,4R)-4-(2-amino-6-cyclopropylamino-9H-purin-9-yl)-2-cyclopeutene-1-methanol O-(phenyldiethoxy-L-aspartyl phosphate)], for which the EC50 in data set [1] came out at 2100 nM; in data set [3], 550 nM; in data set [5], 7180 nM. In addition, the CC50 in data set [2] worked out at 23100 nM. For the same compound, the MCCMSV in data set [4] is recorded as greater than 20.
